In ChEMBL document CHEMBL4002609, “Sulfonamide-based non-alkyne LpxC inhibitors as Gram-negative antibacterial agents” (Bioorg Med Chem Lett, 2017):
pIC50: −log10 of the molar value. ≈ marks a conversion by molar mass, not a printed value.

Columns and labels:
Staphylococcus aureus = assay: Antibacterial activity against Staphylococcus aureus ATCC 29213 by agar dilution method; format: functional
Pseudomonas aeruginosa = assay: Antibacterial activity against Pseudomonas aeruginosa PAO 4009 by agar dilution method; format: functional
Klebsiella pneumoniae = assay: Antibacterial activity against Klebsiella pneumoniae ATCC 13883 by agar dilution method; format: functional
Escherichia coli = assay: Antibacterial activity against Escherichia coli TG1 by agar dilution method; format: functional
[1] = target: T1, UDP-3-O-acyl-N-acetylglucosamine deacetylase (Escherichia coli K-12, UniProt P0A725); assay: Inhibition of Escherichia coli LpxC using UDP-3-O-(R-3-hydroxymyristoyl)GlcNAc as substrate after 60 mins by OPA reagent based fluorescence assay
T1 sequence (P0A725 whole entry): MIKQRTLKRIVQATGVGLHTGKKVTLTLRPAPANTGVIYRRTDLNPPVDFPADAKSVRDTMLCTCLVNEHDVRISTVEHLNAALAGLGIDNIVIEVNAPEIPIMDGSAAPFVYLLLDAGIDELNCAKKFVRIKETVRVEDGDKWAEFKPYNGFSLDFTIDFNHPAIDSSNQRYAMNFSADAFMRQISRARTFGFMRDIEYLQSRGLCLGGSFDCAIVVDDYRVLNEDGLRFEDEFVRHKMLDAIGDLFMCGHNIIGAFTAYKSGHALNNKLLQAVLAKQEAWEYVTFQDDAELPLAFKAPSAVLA

Cytochrome P450 2C9 = Cytochrome P450 2C9 (Homo sapiens, UniProt P11712); assay: Time-dependent inhibition of CYP2C9 (unknown origin); format: ADME
Cytochrome P450 2C9, sequence (P11712 whole entry): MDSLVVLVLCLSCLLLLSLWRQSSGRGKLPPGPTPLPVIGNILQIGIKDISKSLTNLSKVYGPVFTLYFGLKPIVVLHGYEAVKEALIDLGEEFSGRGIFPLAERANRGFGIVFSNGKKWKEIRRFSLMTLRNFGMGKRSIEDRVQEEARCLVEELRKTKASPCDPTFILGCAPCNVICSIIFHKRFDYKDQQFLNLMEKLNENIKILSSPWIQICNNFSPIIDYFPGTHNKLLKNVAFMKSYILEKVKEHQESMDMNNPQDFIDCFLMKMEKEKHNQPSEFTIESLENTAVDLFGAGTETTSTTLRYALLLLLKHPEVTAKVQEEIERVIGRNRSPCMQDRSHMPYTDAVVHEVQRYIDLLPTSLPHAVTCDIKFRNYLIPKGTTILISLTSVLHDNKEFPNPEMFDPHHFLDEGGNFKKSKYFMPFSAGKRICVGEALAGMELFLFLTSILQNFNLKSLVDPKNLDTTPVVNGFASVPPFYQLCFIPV

Cytochrome P450 1A2 = target: T2, Cytochrome P450 1A2 (Homo sapiens, UniProt P05177); assay: Time-dependent inhibition of CYP1A2 (unknown origin); format: ADME
T2 sequence (P05177 whole entry): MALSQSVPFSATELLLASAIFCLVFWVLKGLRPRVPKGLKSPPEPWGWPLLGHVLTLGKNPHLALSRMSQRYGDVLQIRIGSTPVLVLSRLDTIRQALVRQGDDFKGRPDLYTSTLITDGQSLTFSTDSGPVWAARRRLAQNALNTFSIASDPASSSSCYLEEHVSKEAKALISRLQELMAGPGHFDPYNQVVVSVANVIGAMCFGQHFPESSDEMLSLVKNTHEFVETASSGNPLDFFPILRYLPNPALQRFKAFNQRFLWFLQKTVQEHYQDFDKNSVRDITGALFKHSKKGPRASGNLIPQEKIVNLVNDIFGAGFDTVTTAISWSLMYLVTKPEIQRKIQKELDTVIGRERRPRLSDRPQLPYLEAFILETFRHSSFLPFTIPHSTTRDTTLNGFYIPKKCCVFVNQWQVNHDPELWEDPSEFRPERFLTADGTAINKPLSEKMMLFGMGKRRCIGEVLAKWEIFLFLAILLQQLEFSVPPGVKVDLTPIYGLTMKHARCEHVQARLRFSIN

Cytochrome P450 3A4 = Cytochrome P450 3A4 (Homo sapiens, UniProt P08684); assay: Time-dependent inhibition of CYP3A4 (unknown origin); format: ADME
Cytochrome P450 3A4, sequence (P08684 whole entry): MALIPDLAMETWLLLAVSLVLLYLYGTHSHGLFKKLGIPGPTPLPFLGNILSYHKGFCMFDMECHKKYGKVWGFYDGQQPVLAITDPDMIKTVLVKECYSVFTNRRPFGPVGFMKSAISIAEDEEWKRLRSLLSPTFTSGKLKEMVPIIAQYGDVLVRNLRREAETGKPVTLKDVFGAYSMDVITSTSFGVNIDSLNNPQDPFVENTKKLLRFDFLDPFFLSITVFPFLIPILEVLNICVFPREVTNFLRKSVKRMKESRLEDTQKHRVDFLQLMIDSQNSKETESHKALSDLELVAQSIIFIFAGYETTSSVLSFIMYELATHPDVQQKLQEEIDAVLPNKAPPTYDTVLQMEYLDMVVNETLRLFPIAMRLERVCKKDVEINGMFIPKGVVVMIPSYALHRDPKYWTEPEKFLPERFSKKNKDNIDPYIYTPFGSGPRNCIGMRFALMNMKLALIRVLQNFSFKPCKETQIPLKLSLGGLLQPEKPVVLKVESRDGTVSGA

Cytochrome P450 2C19 = Cytochrome P450 2C19 (Homo sapiens, UniProt P33261); assay: Time-dependent inhibition of CYP2C19 (unknown origin); format: ADME
Cytochrome P450 2C19, sequence (P33261 whole entry): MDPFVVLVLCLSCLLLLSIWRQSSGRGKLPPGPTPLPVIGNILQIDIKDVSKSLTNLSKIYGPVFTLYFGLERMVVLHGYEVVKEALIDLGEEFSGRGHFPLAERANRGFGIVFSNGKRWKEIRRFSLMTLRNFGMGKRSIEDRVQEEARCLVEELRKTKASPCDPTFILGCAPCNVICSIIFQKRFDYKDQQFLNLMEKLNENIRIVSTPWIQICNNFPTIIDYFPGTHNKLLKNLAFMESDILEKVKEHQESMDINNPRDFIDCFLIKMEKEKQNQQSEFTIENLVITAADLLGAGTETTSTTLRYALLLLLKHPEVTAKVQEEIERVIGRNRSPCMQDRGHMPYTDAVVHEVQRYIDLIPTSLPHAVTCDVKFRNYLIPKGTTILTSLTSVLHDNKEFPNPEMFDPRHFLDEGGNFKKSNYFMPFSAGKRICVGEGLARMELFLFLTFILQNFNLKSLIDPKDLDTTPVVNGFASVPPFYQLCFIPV

Cytochrome P450 2D6 = Cytochrome P450 2D6 (Homo sapiens, UniProt P10635); assay: Time-dependent inhibition of CYP2D6 (unknown origin); format: ADME
Cytochrome P450 2D6, sequence (P10635 whole entry): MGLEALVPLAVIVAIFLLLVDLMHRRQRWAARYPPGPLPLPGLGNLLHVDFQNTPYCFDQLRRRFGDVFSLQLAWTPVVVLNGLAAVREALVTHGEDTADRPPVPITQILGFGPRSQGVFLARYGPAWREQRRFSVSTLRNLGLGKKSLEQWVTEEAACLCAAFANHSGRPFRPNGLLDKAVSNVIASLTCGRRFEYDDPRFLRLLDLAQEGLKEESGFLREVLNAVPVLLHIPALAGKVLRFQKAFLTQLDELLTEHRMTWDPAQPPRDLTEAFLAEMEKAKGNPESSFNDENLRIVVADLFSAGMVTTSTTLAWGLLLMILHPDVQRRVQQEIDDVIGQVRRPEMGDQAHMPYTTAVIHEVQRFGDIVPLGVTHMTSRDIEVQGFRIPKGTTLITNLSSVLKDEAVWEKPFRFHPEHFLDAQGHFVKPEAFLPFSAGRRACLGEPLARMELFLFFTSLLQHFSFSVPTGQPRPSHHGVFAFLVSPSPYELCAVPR

| SMILES | MIC (Staphylococcus aureus) | MIC (Pseudomonas aeruginosa) | MIC (Klebsiella pneumoniae) | MIC (Escherichia coli) | pIC50 [1] | TDI (Cytochrome P450 2C9) | TDI (Cytochrome P450 1A2) | TDI (Cytochrome P450 3A4) | TDI (Cytochrome P450 2C19) | TDI (Cytochrome P450 2D6) |
| --- | --- | --- | --- | --- | --- | --- | --- | --- | --- | --- |
| C[C@@H](O)[C@H](NC(=O)c1ccc(C#Cc2ccc(CN3CCOCC3)cc2)cc1)C(=O)NO | > 128 µg/mL | 0.5 µg/mL (≈ 1.14 µM) | 0.25 µg/mL (≈ 0.571 µM) | 0.125 µg/mL (≈ 0.286 µM) | – | – | – | – | – | – |
| CC(C)(NS(C)(=O)=O)[C@H](NC(=O)c1ccc(-c2ccccc2)cc1)C(=O)NO | – | 1 µg/mL (≈ 2.47 µM) | 64 µg/mL (≈ 158 µM) | 2 µg/mL (≈ 4.93 µM) | 5.92 | – | – | – | – | – |
| CC(C)(NS(C)(=O)=O)[C@H](NC(=O)c1ccc(-c2cc3ccccc3o2)cc1)C(=O)NO | 64 µg/mL (≈ 144 µM) | 1 µg/mL (≈ 2.24 µM) | 1 µg/mL (≈ 2.24 µM) | 0.25 µg/mL (≈ 0.561 µM) | 7.09 | – | – | – | – | – |
| CC(C)(NS(C)(=O)=O)[C@H](NC(=O)c1ccc(-c2cc3cc(F)ccc3o2)cc1)C(=O)NO | 32 µg/mL (≈ 69 µM) | 0.5 µg/mL (≈ 1.08 µM) | 1 µg/mL (≈ 2.16 µM) | 0.25 µg/mL (≈ 0.539 µM) | 7.00 | – | – | – | – | – |
| CC(C)(NS(C)(=O)=O)[C@H](NC(=O)c1ccc(-c2cc3ccc(OCCO)cc3o2)cc1)C(=O)NO | > 128 µg/mL | 4 µg/mL (≈ 7.91 µM) | 8 µg/mL (≈ 15.8 µM) | 1 µg/mL (≈ 1.98 µM) | 8.00 | – | – | – | – | – |
| CC(C)(NS(C)(=O)=O)[C@H](NC(=O)c1ccc(-c2cc3ccc(O)cc3o2)cc1)C(=O)NO | > 64 µg/mL | 2 µg/mL (≈ 4.33 µM) | 8 µg/mL (≈ 17.3 µM) | 1 µg/mL (≈ 2.17 µM) | 6.85 | – | – | – | – | – |
| Cc1ccc(-c2ccc(C(=O)N[C@H](C(=O)NO)C(C)(C)NS(C)(=O)=O)nc2)cc1 | – | 32 µg/mL (≈ 76.1 µM) | > 128 µg/mL | 32 µg/mL (≈ 76.1 µM) | < 5.00 | – | – | – | – | – |
| CC(C)(NS(C)(=O)=O)[C@H](NC(=O)c1ccc(-c2cc3ccc(F)cc3o2)cc1)C(=O)NO | 64 µg/mL (≈ 138 µM) | 0.5 µg/mL (≈ 1.08 µM) | 1 µg/mL (≈ 2.16 µM) | 0.25 µg/mL (≈ 0.539 µM) | 7.10 | – | – | – | – | – |
| CC(C)(NS(C)(=O)=O)[C@H](NC(=O)c1ccc(-c2cc3ccccn3n2)cc1)C(=O)NO | > 128 µg/mL | 4 µg/mL (≈ 8.98 µM) | > 128 µg/mL | 64 µg/mL (≈ 144 µM) | < 5.00 | – | – | – | – | – |
| Cc1ccc(-c2ccc(C(=O)N[C@H](C(=O)NO)C(C)(C)NS(C)(=O)=O)cc2)cc1 | > 128 µg/mL | 0.5 µg/mL (≈ 1.19 µM) | 4 µg/mL (≈ 9.54 µM) | 1 µg/mL (≈ 2.38 µM) | 6.38 | Active | Active | Active | Active | Active |
| CC(C)(NS(C)(=O)=O)[C@H](NC(=O)c1ccc(-c2nc3ccccc3o2)cc1)C(=O)NO | > 128 µg/mL | 4 µg/mL (≈ 8.96 µM) | 8 µg/mL (≈ 17.9 µM) | 1 µg/mL (≈ 2.24 µM) | 6.39 | – | – | – | – | – |
| CC(C)(NS(C)(=O)=O)[C@H](NC(=O)c1ccc(-c2cc3cncnc3o2)cc1)C(=O)NO | > 128 µg/mL | 32 µg/mL (≈ 71.5 µM) | > 128 µg/mL | 128 µg/mL (≈ 286 µM) | < 5.00 | – | – | – | – | – |
| Cc1cnc(-c2ccc(C(=O)N[C@H](C(=O)NO)C(C)(C)NS(C)(=O)=O)cc2)nc1 | – | 16 µg/mL (≈ 38 µM) | > 128 µg/mL | 64 µg/mL (≈ 152 µM) | < 5.00 | – | – | – | – | – |
| CC(C)(NS(C)(=O)=O)[C@H](NC(=O)c1ccc(-c2cc3cc4c(cc3o2)OCO4)cc1)C(=O)NO | > 32 µg/mL | 0.5 µg/mL (≈ 1.02 µM) | 0.5 µg/mL (≈ 1.02 µM) | 0.063 µg/mL (≈ 0.129 µM) | 7.92 | – | – | – | – | – |
| CN(C)CCOc1ccc2cc(-c3ccc(C(=O)N[C@H](C(=O)NO)C(C)(C)NS(C)(=O)=O)cc3)oc2c1 | > 128 µg/mL | 8 µg/mL (≈ 15 µM) | 32 µg/mL (≈ 60.1 µM) | 4 µg/mL (≈ 7.51 µM) | 7.66 | – | – | – | – | – |
| CC(C)(NS(C)(=O)=O)[C@H](NC(=O)c1ccc(-c2cc3ccncc3o2)cc1)C(=O)NO | > 128 µg/mL | 8 µg/mL (≈ 17.9 µM) | 128 µg/mL (≈ 287 µM) | 8 µg/mL (≈ 17.9 µM) | 5.85 | – | – | – | – | – |
| Cc1ccc(-c2ccc(C(=O)N[C@H](C(=O)NO)C(C)(C)NS(C)(=O)=O)cn2)cc1 | – | 4 µg/mL (≈ 9.51 µM) | 64 µg/mL (≈ 152 µM) | 8 µg/mL (≈ 19 µM) | 5.82 | – | – | – | – | – |
| Cc1ncc(-c2ccc(C(=O)N[C@H](C(=O)NO)C(C)(C)NS(C)(=O)=O)cc2)cn1 | – | > 128 µg/mL | > 128 µg/mL | > 128 µg/mL | < 5.00 | – | – | – | – | – |
